Experimental data as given in the supplement of paper PMC10307832.

What was measured:
Experiment in all cases: relative viability (nuclei count vs DMSO), 5 days (fraction); higher = more cells survive
NCI-H647 = system: NCI-H647
How it was run: (§1)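 Medians of duplicate plates are given as relative viability. That measure is the nuclei count in treated wells divided by the count in vehicle wells. Counts were taken on 4× images of lung cancer cell lines in 1536-well plates, 5 days after pin-tool dosing the day after seeding with one drug alone or a fixed anchor-drug dose plus five library-drug doses (not always all listed) in √10 steps.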

NCI-H358 = system: NCI-H358
How it was run: as §1

NCI-H2347 = system: NCI-H2347
How it was run: as §1

SW 1573 = system: SW 1573
How it was run: as §1

HCC-15 = system: HCC-15
How it was run: as §1

NCI-H460 = system: NCI-H460
How it was run: as §1

NCI-H1755 = system: NCI-H1755
How it was run: as §1

NCI-H2126 = system: NCI-H2126
How it was run: as §1

NCI-H2342 = system: NCI-H2342
How it was run: as §1

A-427 = system: A-427
How it was run: as §1

HOP-62 = system: HOP-62
How it was run: as §1

NCI-H2228 = system: NCI-H2228
How it was run: as §1

## Clc1ccc(Nc2nnc(Cc3ccncc3)c3ccccc23)cc1 [Vatalanib] + Cc1nc(Nc2ncc(C(=O)Nc3c(C)cccc3Cl)s2)cc(N2CCN(CCO)CC2)n1 [Dasatinib] (partner 0.075 µM)
NCI-H647; first compound 0.04 µM
  relative viability: 0.205
NCI-H647; first compound 0.1265 µM
  relative viability: 0.184
NCI-H647; first compound 0.4 µM
  relative viability: 0.212
NCI-H647; first compound 1.265 µM
  relative viability: 0.191
NCI-H647; first compound 4 µM
  relative viability: 0.148
NCI-H358; first compound 0.04 µM
  relative viability: 0.164
NCI-H358; first compound 0.1265 µM
  relative viability: 0.194
NCI-H358; first compound 0.4 µM
  relative viability: 0.165
NCI-H358; first compound 1.265 µM
  relative viability: 0.162
NCI-H358; first compound 4 µM
  relative viability: 0.169
NCI-H2347; first compound 0.04 µM
  relative viability: 0.295
NCI-H2347; first compound 0.1265 µM
  relative viability: 0.352
NCI-H2347; first compound 0.4 µM
  relative viability: 0.342
NCI-H2347; first compound 1.265 µM
  relative viability: 0.28
NCI-H2347; first compound 4 µM
  relative viability: 0.385
SW 1573; first compound 0.04 µM
  relative viability: 0.73
SW 1573; first compound 0.1265 µM
  relative viability: 0.496
SW 1573; first compound 0.4 µM
  relative viability: 0.645
SW 1573; first compound 1.265 µM
  relative viability: 0.395
SW 1573; first compound 4 µM
  relative viability: 0.476
HCC-15; first compound 0.04 µM
  relative viability: 0.611
HCC-15; first compound 0.1265 µM
  relative viability: 0.628
HCC-15; first compound 0.4 µM
  relative viability: 0.628
HCC-15; first compound 1.265 µM
  relative viability: 0.524
HCC-15; first compound 4 µM
  relative viability: 0.538
NCI-H460; first compound 0.04 µM
  relative viability: 0.558
NCI-H460; first compound 0.1265 µM
  relative viability: 0.498
NCI-H460; first compound 0.4 µM
  relative viability: 0.54
NCI-H460; first compound 1.265 µM
  relative viability: 0.351
NCI-H460; first compound 4 µM
  relative viability: 0.409
NCI-H1755; first compound 0.04 µM
  relative viability: 0.496
NCI-H1755; first compound 0.1265 µM
  relative viability: 0.418
NCI-H1755; first compound 0.4 µM
  relative viability: 0.514
NCI-H1755; first compound 1.265 µM
  relative viability: 0.413
NCI-H1755; first compound 4 µM
  relative viability: 0.381
NCI-H2126; first compound 0.04 µM
  relative viability: 0.609
NCI-H2126; first compound 0.1265 µM
  relative viability: 0.571
NCI-H2126; first compound 0.4 µM
  relative viability: 0.585
NCI-H2126; first compound 1.265 µM
  relative viability: 0.42
NCI-H2126; first compound 4 µM
  relative viability: 0.503
NCI-H2342; first compound 0.04 µM
  relative viability: 0.292
NCI-H2342; first compound 0.1265 µM
  relative viability: 0.324
NCI-H2342; first compound 0.4 µM
  relative viability: 0.278
NCI-H2342; first compound 1.265 µM
  relative viability: 0.312
NCI-H2342; first compound 4 µM
  relative viability: 0.295
A-427; first compound 0.04 µM
  relative viability: 0.784
A-427; first compound 0.1265 µM
  relative viability: 0.642
A-427; first compound 0.4 µM
  relative viability: 0.638
A-427; first compound 1.265 µM
  relative viability: 0.662
A-427; first compound 4 µM
  relative viability: 0.732
HOP-62; first compound 0.04 µM
  relative viability: 0.786
HOP-62; first compound 0.1265 µM
  relative viability: 0.563
HOP-62; first compound 0.4 µM
  relative viability: 0.712
HOP-62; first compound 1.265 µM
  relative viability: 0.635
HOP-62; first compound 4 µM
  relative viability: 0.602
NCI-H2228; first compound 0.04 µM
  relative viability: 0.494
NCI-H2228; first compound 0.1265 µM
  relative viability: 0.483
NCI-H2228; first compound 0.4 µM
  relative viability: 0.595
NCI-H2228; first compound 1.265 µM
  relative viability: 0.482
